Source: US6525059B1, “Substituted pyrazoles as p38 kinase inhibitors” (G. D. Searle & Company, priority 1998, dated 2003)
Structures can show the parent of a compound that is named as a salt. Where two headings read alike, the source gives them in different places.

Experiments:
TNF-α [1] = experiment: Rat assay: LPS-challenged rats, serum TNF-α by ELISA; assay type: in vivo
Procedure: The efficacy of the novel compounds in blocking the production of TNF also was evaluated using a model based on rats challenged with LPS. Male Harlen Lewis rats [Sprague Dawley Co.] were used in this model. Each rat weighed approximately 300 g and was fasted overnight prior to testing. Compounds administration was typically by oral gavage (although intraperitoneal, subcutaneous and intravenous administration were also used in a few instances) 1 to 24 hours prior to the LPS challenge. Rats were administered 30 μg/kg LPS [salmonella typhosa, Sigma Co.] intravenously via the tail vein. Blood was collected via heart puncture 1 hour after the LPS challenge. Serum samples were stored at −20° C. until quantitative analysis of TNF-α by Enzyme Linked-Immuno-Sorbent Assay (“ELISA”) [Biosource]. Additional details of the assay are set forth in Perretti, M., et al., Br. J. Pharmacol. (1993), 110, 868-874, which is incorporated by reference in this application.
In vivo assessment of the ability of the compounds to inhibit LPS-stimulated TNF release in the rat is shown in the column identified as:
wherein in the dose is milligram per kilogram (mpk) administered by oral gavage and the predose time indicates the number of hours before LPS challenge when the compound is administered.

human p38 kinase alpha = molecular target: T1, human p38 kinase alpha (Homo sapiens, UniProt Q16539); experiment: p38 kinase in vitro assay, phosphorylation of biotinylated PHAS-I with gamma 32P-ATP; assay type: biochemical; settings: read-out: P38 alpha kinase IC50
T1 construct: The coding region of the human p38a cDNA was obtained by PCR-amplification from RNA isolated from the human monocyte cell line THP.1; GST (N); made in house; host or cells: E. coli DH10B
How it was run: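 MKK6-activated human p38α phosphorylates biotinylated PHAS-I with γ-32P-ATP in 25 mM HEPES pH 7.5, 10 mM Mg acetate, 50 μM unlabeled ATP, 1% DMSO, 30 °C for 1 h or overnight. Compounds at 100–0.001 μM (10-fold steps, triplicate); substrate captured on streptavidin filter plates and counted by scintillation.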

TNF-α [2] = experiment: LPS stimulation of TNF production by U937 cells; assay type: cell-based, human; settings: for inhibition at 1 µM: Homo sapiens, U-937, @ 1.0 uM, read-out: U937 Cell % inhib @ conc.; for U937 Cell % inhib @ conc.: @ 1.0 uM
How it was run: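 PMA-differentiated human U937 cells (20 ng/ml PMA, 24 h, then 24-48 h rest) at 2 million cells/ml, 0.1% DMSO final, stimulated with E. coli LPS (100 ng/ml final) for 4 h at 37° C. TNF-α in medium measured by ELISA; IC50 in μM.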

[3] = 3 mpk oral gavage, -4h before LPS
[4] = 3 mpk oral gavage, 4 h before LPS challenge

T1 sequence (Q16539 whole entry): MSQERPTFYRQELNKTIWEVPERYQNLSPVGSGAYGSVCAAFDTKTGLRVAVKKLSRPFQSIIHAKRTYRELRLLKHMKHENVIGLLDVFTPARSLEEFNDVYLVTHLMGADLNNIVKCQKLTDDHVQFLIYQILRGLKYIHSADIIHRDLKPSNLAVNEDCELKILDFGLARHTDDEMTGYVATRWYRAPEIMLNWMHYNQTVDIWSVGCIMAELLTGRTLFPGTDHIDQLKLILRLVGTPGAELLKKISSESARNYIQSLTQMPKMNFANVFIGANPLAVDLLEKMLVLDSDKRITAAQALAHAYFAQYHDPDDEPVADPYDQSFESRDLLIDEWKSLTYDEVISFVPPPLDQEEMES

| IC50 (human p38 kinase alpha) [nM] | Compound | inhibition at 1 µM (TNF-α [2]) [%] | also measured |
| --- | --- | --- | --- |
|  | 5-[2-(1,1-DIMETHYL)AMINOETHYL]-4-(4-PYRIDYL)-3-(4-FLUOROPHENYL)PYRAZOLE [Example C-114] |  | Rat LPS Model % Inhibition @ dose @ predose time (TNF-α [1]; 5 mpk oral gavage, 4 h before LPS challenge): 39% @ 5 mpk @ −4h |
|  | O=C(O)CCC(=O)N1CCN(c2n[nH]c(-c3ccc(Cl)cc3)c2-c2ccncc2)CC1 [A-321 (monosodium salt dihydrate), 4-[5-(4-chlorophenyl)-4-(4-pyridinyl)-1H-pyrazol-3-yl]-γ-oxo-1-piperazinebutanoic acid, monosodium salt dihydrate] |  | inhibition in vivo at 3 mg/kg (TNF-α [1]; Rattus norvegicus, po, read-out: Rat LPS Assay % Inhibition): 14% |
|  | Fc1ccc(-c2n[nH]cc2-c2ccnc(NCCN3CCC(N4CCCCC4)CC3)c2)cc1 [Example A-350, N-(2-[1,4′-bipiperidin]-1′-ylethyl)-4-[3-(4-fluorophenyl)-1H-pyrazol-4-yl]-2-pyridinamine] |  | inhibition in vivo at 20 mg/kg (TNF-α [1]; Rattus norvegicus, po, Table 9, dose 20 mg/kg): 65% |
|  | C[C@@H](NS(=O)(=O)N(C)C)c1[nH]nc(-c2ccc(F)cc2)c1-c1ccncc1 [Example B-0487] |  | inhibition in vivo at 3 mg/kg (TNF-α [1]; Rattus norvegicus, po, -4 h, 3 mpk oral gavage, -4h before LPS, read-out: Rat LPS Model % inhib @ dose @ predose time): 54% |
| 69 | Cc1ccccc1C(=O)N[C@H](C)c1[nH]nc(-c2ccc(F)cc2)c1-c1ccncc1 [Example B-0492] | 42 |  |
| 300 | C[C@@H](NC(=O)c1ccc(Cl)cc1)c1[nH]nc(-c2ccc(F)cc2)c1-c1ccncc1 [Example B-0493] | 36 |  |
| 120 | C[C@@H](NC(=O)c1cccc(C(F)(F)F)c1)c1[nH]nc(-c2ccc(F)cc2)c1-c1ccncc1 [Example B-0495] | 25 |  |
| 830 | C[C@@H](NC(=O)c1cc2ccccc2s1)c1[nH]nc(-c2ccc(F)cc2)c1-c1ccncc1 [Example B-0496] | 16 |  |
| 330 | C[C@@H](NC(=O)c1cc(Cl)cc(Cl)c1)c1[nH]nc(-c2ccc(F)cc2)c1-c1ccncc1 [Example B-0498] | 11 |  |
| 65 | C[C@@H](NC(=O)c1cc(F)cc(F)c1)c1[nH]nc(-c2ccc(F)cc2)c1-c1ccncc1 [Example B-0502] | 48 |  |
| 160 | C[C@@H](NC(=O)c1c(F)ccc(F)c1F)c1[nH]nc(-c2ccc(F)cc2)c1-c1ccncc1 [Example B-0503] | 73 |  |
| 400 | C[C@@H](NC(=O)c1cccc(Cl)c1Cl)c1[nH]nc(-c2ccc(F)cc2)c1-c1ccncc1 [Example B-0504] | 43 |  |
| 940 | C[C@@H](NC(=O)c1cc(C(F)(F)F)ccc1F)c1[nH]nc(-c2ccc(F)cc2)c1-c1ccncc1 [Example B-0506] | 43 |  |
| 180 | C[C@@H](NC(=O)c1c(F)cc(F)cc1F)c1[nH]nc(-c2ccc(F)cc2)c1-c1ccncc1 [Example B-0507] | 75 |  |
| 2000 | C[C@@H](NC(=O)c1ccc(C(F)(F)F)cc1F)c1[nH]nc(-c2ccc(F)cc2)c1-c1ccncc1 [Example B-0508] | 48 |  |
| 100 | C[C@@H](NC(=O)c1c(F)cccc1C(F)(F)F)c1[nH]nc(-c2ccc(F)cc2)c1-c1ccncc1 [Example B-0509] | 86 |  |
| 7 | C[C@@H](NC(=O)c1ccc(F)cc1C(F)(F)F)c1[nH]nc(-c2ccc(F)cc2)c1-c1ccncc1 [Example B-0511] | 90 |  |
| 720 | C[C@@H](NC(=O)c1cc(F)cc(C(F)(F)F)c1)c1[nH]nc(-c2ccc(F)cc2)c1-c1ccncc1 [Example B-0513] | 52 |  |
| 140 | C[C@@H](NC(=O)c1ccccc1Cl)c1[nH]nc(-c2ccc(F)cc2)c1-c1ccncc1 [Example B-0514] | 87 |  |
| 94 | C[C@@H](NC(=O)c1cccc(F)c1)c1[nH]nc(-c2ccc(F)cc2)c1-c1ccncc1 [Example B-0517] | 52 |  |
| 43 | C[C@@H](NC(=O)c1c(Cl)cccc1Cl)c1[nH]nc(-c2ccc(F)cc2)c1-c1ccncc1 [Example B-0519] | 87 |  |
| 400 | C[C@@H](NC(=O)c1cc(F)ccc1F)c1[nH]nc(-c2ccc(F)cc2)c1-c1ccncc1 [Example B-0520] | 67 |  |
| 1370 | C[C@@H](NC(=O)c1cc(F)c(F)cc1F)c1[nH]nc(-c2ccc(F)cc2)c1-c1ccncc1 [Example B-0521] | 52 |  |

| IC50 (human p38 kinase alpha) [nM] | Compound | inhibition at 1 µM (TNF-α [2]) [%] | also measured |
| --- | --- | --- | --- |
| 150 | C[C@@H](NC(=O)c1ccccc1F)c1[nH]nc(-c2ccc(F)cc2)c1-c1ccncc1 [Example B-0522] | 75 |  |
| 190 | C[C@@H](NC(=O)c1c(F)cccc1F)c1[nH]nc(-c2ccc(F)cc2)c1-c1ccncc1 [Example B-0523] | 83 |  |
| 31 | C[C@@H](NC(=O)c1ccccc1Br)c1[nH]nc(-c2ccc(F)cc2)c1-c1ccncc1 [Example B-0526] | 87 |  |
| 1090 | C[C@@H](NC(=O)c1ccc(C(F)(F)F)cc1)c1[nH]nc(-c2ccc(F)cc2)c1-c1ccncc1 [Example B-0527] | 63 |  |
| 140 | C[C@@H](NC(=O)c1cccs1)c1[nH]nc(-c2ccc(F)cc2)c1-c1ccncc1 [Example B-0528] | 70 |  |
|  | CC(NS(=O)(=O)c1ccc(F)cc1)c1[nH]nc(-c2ccc(F)cc2)c1-c1ccncc1 (stereo not drawn) [Example B-0562] |  | Rat LPS Model % inhib @ dose @ predose time (TNF-α [1]; [3]): 5% @ 3 mpk @ -4h |
|  | CC(NS(=O)(=O)Cc1ccccc1)c1[nH]nc(-c2ccc(F)cc2)c1-c1ccncc1 (stereo not drawn) [Example B-0566] |  | Rat LPS Model % inhib @ dose @ predose time (TNF-α [1]; [3]): 0% @ 3 mpk @ -4h |
|  | COc1ccc(S(=O)(=O)NC(C)c2[nH]nc(-c3ccc(F)cc3)c2-c2ccncc2)cc1 (stereo not drawn) [Example B-0574] |  | Rat LPS Model % inhib @ dose @ predose time (TNF-α [1]; [3]): 37% @ 3 mpk @ -4h |
|  | Cc1ccc(S(=O)(=O)NC(C)c2[nH]nc(-c3ccc(F)cc3)c2-c2ccncc2)cc1 (stereo not drawn) [Example B-0576] |  | Rat LPS Model % inhib @ dose @ predose time (TNF-α [1]; [3]): 65% @ 3 mpk @ -4h |
| 2 | CC(NC(=O)Cc1cccs1)c1[nH]nc(-c2ccc(F)cc2)c1-c1ccncc1 (stereo not drawn) [Example B-0600] |  | U937 Cell % inhib @ conc. (TNF-α [2]): 28.0% @ 1.0 uM |
|  | CC(NC(=O)C(C)(C)C)c1[nH]nc(-c2ccc(F)cc2)c1-c1ccncc1 (stereo not drawn) [Example B-0601] |  | Rat LPS Model % inhib @ dose @ predose time (TNF-α [1]; [3]): 43% @ 3 mpk %-4h |
|  | CC(NS(=O)(=O)c1cccc(Cl)c1)c1[nH]nc(-c2ccc(F)cc2)c1-c1ccncc1 (stereo not drawn) [Example B-0639] |  | Rat LPS Model % inhib @ dose @ predose time (TNF-α [1]; [3]): 50% @ 3 mpk @ -4h |
|  | CC(NS(=O)(=O)c1ccc(F)c(Cl)c1)c1[nH]nc(-c2ccc(F)cc2)c1-c1ccncc1 (stereo not drawn) [Example B-0643] |  | Rat LPS Model % inhib @ dose @ predose time (TNF-α [1]; [3]): 0% @ 3 mpk @ -4h |
|  | CC(NS(=O)(=O)c1ccc(Cl)s1)c1[nH]nc(-c2ccc(F)cc2)c1-c1ccncc1 (stereo not drawn) [Example B-0650] |  | Rat LPS Model % inhib @ dose @ predose time (TNF-α [1]; [3]): 8% @ 3 mpk @ -4h |
|  | CC(NS(=O)(=O)c1ccc(C#N)cc1)c1[nH]nc(-c2ccc(F)cc2)c1-c1ccncc1 (stereo not drawn) [Example B-0656] |  | Rat LPS Model % inhib @ dose @ predose time (TNF-α [1]; [3]): 28% @ 3 mpk @ -4h |
| 6380 | Cc1ccc(C(=O)NC(C)c2[nH]nc(-c3ccc(F)cc3)c2-c2ccncc2)cc1 (stereo not drawn) [Example B-0671] |  | U937 Cell % inhib @ conc. (TNF-α [2]): 36.0% @ 1.0 uM |
| 27100 | CC(NC(=O)c1cc(F)cc(C(F)(F)F)c1)c1[nH]nc(-c2ccc(F)cc2)c1-c1ccncc1 (stereo not drawn) [Example B-0690] |  | U937 Cell % inhib @ conc. (TNF-α [2]): 36.0% @ 1.0 uM |
| 10 | CC(C)(C)C(=O)NC(Cc1ccccc1)c1[nH]nc(-c2ccc(F)cc2)c1-c1ccncc1 (stereo not drawn) [Example B-0746] |  | U937 Cell % inhib @ conc. (TNF-α [2]): 22.0% @ 1.0 uM |
| 10 | CCCS(=O)(=O)NC(Cc1ccccc1)c1[nH]nc(-c2ccc(F)cc2)c1-c1ccncc1 (stereo not drawn) [Example B-0760] |  | U937 Cell % inhib @ conc. (TNF-α [2]): 13.0% @ 1.0 uM |
| 300 | CC(C)(C)C(=O)NC(Cc1ccccc1)c1[nH]nc(-c2ccc(F)cc2)c1-c1ccncc1 (stereo not drawn) [Example B-0791] |  | IC50 (TNF-α [2]; TNF production, LPS-stimulated human U937 cells, read-out: U937 Cell IC50): > 1000 nM |
|  | O=C(c1ccc(F)cc1)N1CCC(c2[nH]nc(-c3ccc(F)cc3)c2-c2ccncc2)CC1 [Example B-1360] |  | Rat LPS Model % inhib @ dose @ predose time (TNF-α [1]; [4]): 54% @ 3 mpk @ -4h |
|  | O=C(C1CC1)N1CCC(c2[nH]nc(-c3ccc(F)cc3)c2-c2ccncc2)CC1 [Example B-1364] |  | Rat LPS Model % inhib @ dose @ predose time (TNF-α [1]; [4]): 17% @ 3 mpk @ -4h |
